Data published in PMC7497249, “Synthesis and Biological Screening of New Lawson Derivatives as Selective Substrate‐Based Inhibitors of Cytochrome bo3 Ubiquinol Oxidase from Escherichia coli” (Chemmedchem, 2020).
Where “and” joins values, the source holds several entries; their conditions need not be identical. Identical values can stand only once. Like-named read-outs stand apart in the source and are kept apart here.

What was measured:
[1] = target: T1, purified E. coli cyt bd-I oxidase (Escherichia coli, UniProt P0ABJ9); assay: biochemical; settings: for remaining activity at 250 µM: read-out: Residual activity for oxygen reduction, Cytochrome bd-I
T1 construct: made in house; host or cells: E. coli C43(DE3) Δbo3 with plasmid pet17b-cydABX-StrepII
T1 sequence (P56100 whole entry): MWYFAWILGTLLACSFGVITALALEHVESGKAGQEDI
T1 sequence (P0ABJ9 whole entry): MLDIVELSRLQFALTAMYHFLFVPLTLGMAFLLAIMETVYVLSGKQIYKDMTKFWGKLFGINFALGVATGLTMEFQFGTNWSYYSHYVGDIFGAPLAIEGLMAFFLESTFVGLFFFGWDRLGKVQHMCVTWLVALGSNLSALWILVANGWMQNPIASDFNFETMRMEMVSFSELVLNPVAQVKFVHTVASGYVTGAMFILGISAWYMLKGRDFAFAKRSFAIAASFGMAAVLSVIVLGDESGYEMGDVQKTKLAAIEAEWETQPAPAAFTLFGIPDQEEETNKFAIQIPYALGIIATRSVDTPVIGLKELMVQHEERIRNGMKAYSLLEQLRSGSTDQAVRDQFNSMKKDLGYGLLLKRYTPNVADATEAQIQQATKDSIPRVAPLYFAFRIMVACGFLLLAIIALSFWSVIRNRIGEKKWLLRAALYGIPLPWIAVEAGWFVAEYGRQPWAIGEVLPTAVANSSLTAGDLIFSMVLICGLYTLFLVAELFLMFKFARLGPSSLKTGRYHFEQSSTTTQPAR
T1 sequence (P0ABK2 whole entry, further chain): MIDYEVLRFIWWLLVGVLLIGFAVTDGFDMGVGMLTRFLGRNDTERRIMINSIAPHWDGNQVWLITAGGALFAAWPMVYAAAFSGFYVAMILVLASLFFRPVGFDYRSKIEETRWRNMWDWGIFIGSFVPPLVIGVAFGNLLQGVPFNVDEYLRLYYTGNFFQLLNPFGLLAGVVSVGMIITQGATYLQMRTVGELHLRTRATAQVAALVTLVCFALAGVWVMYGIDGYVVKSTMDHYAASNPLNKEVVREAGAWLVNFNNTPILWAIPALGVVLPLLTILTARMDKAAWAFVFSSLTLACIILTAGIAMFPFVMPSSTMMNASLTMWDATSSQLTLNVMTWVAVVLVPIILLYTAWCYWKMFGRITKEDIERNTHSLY
Experimental: (§1) The inhibitory effect of a set of HNQs was screened in micromolar range to identify selective cyt bo3 and cyt bd‐I inhibitors. Oxygen reduction was measured via a Clark‐type electrode. Turnover rates of cyt bo3 and bd‐I experiments are presented as relative activities (Figure 1). For experimental overview and further information see Supporting Information (Figures S38–S40), Tables S2–3). Activity of cyt bo 3 was strongly (>50 %) reduced by HNQ‐1, ‐2, ‐6, ‐7 and ‐12. […]. Overall, the E. coli bd‐I‐type oxidase was less sensitive to the majority of examined compounds. […]; HNQ‐12: 56 %).
(§2) Figure 1 Screening of the inhibition potentials of tested hydroxynaphthoquinones (HNQ) on the oxidase reduction activity of purified E. coli cytbo3 (white) and bd‐I (light gray) oxidase. Inhibition assay using HNQs at 250 μM in the presence of 200 μM ubiquinone‐1 and 5 mM dithiothreitol. Oxygen reduction activity was calculated from oxygen consumption rates at 30 nM enzyme concentration at RT for each experiment. 100 % activity=adding corresponding volume of EtOH. KCN (20 μM) and HQNO (250 μM) represent positive inhibition controls for cyt bo3. The data are mean values of three independent experiments ± standard deviation.
(§3) Oxygen reductase activity measurements: Oxygen reductase activity was measured as oxygen consumption rate of purified protein by an OX‐MR Clark‐type oxygen electrode linked to a PA 2000 picoammeter and to an ADC‐216 for analog to digital conversion. Recording of data with SensorTrace Basic 2.1 software (all Unisense, Denmark).
(§4) Measurements were performed at room temperature in stirred 2 mL – glass vials with a total reaction volume of 600 μL. Oxygen consumption was initiated by adding 30 nM of the respective enzyme to the equilibrated mixture containing 20 mM NaPi (pH 8.0), 50 mM NaCl, 0.02 % DDM, 5 mM dithiothreitol (DTT) and 200 μM Ubiquinone‐1 (2,3‐dimethoxy‐5‐methyl‐6‐(3‐methylbut‐2‐en‐1‐yl)‐1,4‐benzoquinone). Equilibration was done for 10 min prior to enzyme addition. Inhibition experiments with 250 μM of respective HNQ from 20 mM stock solution in EtOH before equilibration. Data analysis and visualization with Origin Lab Pro 9.5 (Additive GmbH, Germany). HQNO (2‐heptyl‐4‐quinolinol 1‐oxide) was purchased from biomol GmbH, Hamburg. Determination of apparent k i (k i ^app) was performed under the same conditions but with a range of inhibitor concentrations from 1000 μM to 0.2 μM. The k i ^app value was adopted as the EC50 from the sigmoidal DoseResp Fit. Further information can be found in Figures S40–S43.

[2] = target: T2, purified E. coli cyt bo3 oxidase (Escherichia coli, UniProt P0ABI8); assay: biochemical; settings: for inhibition at 250 µM: read-out: inhibition (reduction) of cyt bo3 activity; for remaining activity at 250 µM: read-out: Residual activity for oxygen reduction, Cytochrome bo3
T2 construct: made in house; host or cells: E. coli strain GO195 with plasmid pIRHisA
T2 sequence (P0ABJ1 25-315): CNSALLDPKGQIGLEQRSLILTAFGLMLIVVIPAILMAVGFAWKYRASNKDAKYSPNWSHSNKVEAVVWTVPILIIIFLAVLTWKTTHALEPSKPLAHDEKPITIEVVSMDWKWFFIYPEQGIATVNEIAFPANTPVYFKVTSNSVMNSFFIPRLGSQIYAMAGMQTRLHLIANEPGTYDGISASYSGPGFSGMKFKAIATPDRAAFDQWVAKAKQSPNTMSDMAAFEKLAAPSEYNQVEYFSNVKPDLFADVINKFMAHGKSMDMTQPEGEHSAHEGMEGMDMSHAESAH
T2 sequence (P0ABJ3 whole entry, further chain): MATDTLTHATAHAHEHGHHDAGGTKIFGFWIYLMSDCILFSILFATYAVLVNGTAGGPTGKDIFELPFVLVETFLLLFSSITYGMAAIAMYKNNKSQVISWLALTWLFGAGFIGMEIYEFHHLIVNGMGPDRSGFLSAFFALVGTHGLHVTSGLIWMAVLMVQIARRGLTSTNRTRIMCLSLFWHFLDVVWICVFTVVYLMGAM
T2 sequence (P0ABI8 whole entry): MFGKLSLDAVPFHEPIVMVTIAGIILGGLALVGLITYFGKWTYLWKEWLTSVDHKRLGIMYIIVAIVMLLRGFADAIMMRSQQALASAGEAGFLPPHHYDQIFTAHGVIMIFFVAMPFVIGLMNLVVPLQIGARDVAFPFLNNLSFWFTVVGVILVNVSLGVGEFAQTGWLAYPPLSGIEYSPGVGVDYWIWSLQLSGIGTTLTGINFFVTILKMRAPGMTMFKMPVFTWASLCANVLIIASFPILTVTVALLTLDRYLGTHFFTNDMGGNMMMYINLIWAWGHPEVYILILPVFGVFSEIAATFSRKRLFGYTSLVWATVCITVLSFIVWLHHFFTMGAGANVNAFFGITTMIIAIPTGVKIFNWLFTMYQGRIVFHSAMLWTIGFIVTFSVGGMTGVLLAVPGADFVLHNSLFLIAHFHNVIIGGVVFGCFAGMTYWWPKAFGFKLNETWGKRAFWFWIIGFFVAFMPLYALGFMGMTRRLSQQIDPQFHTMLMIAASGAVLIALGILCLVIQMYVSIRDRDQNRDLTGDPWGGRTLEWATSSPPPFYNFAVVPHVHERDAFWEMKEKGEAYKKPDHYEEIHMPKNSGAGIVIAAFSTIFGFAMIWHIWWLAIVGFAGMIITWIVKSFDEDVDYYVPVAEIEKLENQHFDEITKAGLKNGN
T2 sequence (P0ABJ6 whole entry, further chain): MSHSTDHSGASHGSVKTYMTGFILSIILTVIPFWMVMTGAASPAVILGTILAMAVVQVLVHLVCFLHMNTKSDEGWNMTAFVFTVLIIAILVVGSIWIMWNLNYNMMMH
Experimental: as §1, §2, §3, §4

[3] = absorbance-based thermodynamic equilibrium solubility assay; format: physicochemical; settings: buffer 20 mM NaPi, 50 mM NaCl, 0.02 % DDM, pH 8.0, room temperature; for solubility at 1 day: sodium phosphate buffer
Experimental: To meet the requirements for further functional investigations, the solubilities of the HNQ compounds were determined by an absorbance‐based thermodynamic equilibrium solubility assay.36 As shown in Scheme 3a, plotting absorbance over concentration at the wavelength of the maximum peak of the absorbance spectra, (HNQ‐2 at λ=274 nm), provides a saturation point at 1.26±0.03 mM (solubility graphs for all HNQ compounds are shown in Figure S37). […]. Therefore, all twelve HNQ compounds are feasible for further functional studies.
Solubility assay: Thermodynamic equilibrium solubility of HNQ compounds was determined in sodium phosphate buffer containing 20 mM NaPi, 50 mM NaCl, 0.02 % DDM at pH 8.0. All steps were performed at room temperature following the method by Bharate and Vishwakarma.36 Measurements were done in triplicates. HNQ compounds were dissolved in a particular amount of methanol or CH2Cl2 (HNQ‐9) needed for complete dissolving. Required volumes of these methanol stock solutions were transferred in 1.5 mL reaction tubes (0.1–600 μL dependent on compound and stock concentration) to get a concentration row. After 24–48 h complete evaporation of methanol or CH2Cl2 was accomplished. Remaining solid compounds were dissolved by adding 100/200 μL of sodium phosphate buffer to the reaction tubes, which were shaken at 200 rpm for one day for equilibration. Next day, centrifugation of the reaction tubes for 30 min at 13 000 rpm at 11000 g. 50/100 μL of supernatant were pipetted into a 96‐well plate (UV‐Star, Greiner), and absorbance spectra were recorded for each well with a TECAN Spark plate reader (Tecan Trading AG, Switzerland). By plotting absorbance at λ max against concentration [mM] of the compound, saturation point of graph indicates the thermodynamic equilibrium solubility. Data analysis and visualization with SigmaPlot Pro 12.5 (Systat Software GmbH, Germany).

[4] = target: T3, cyt bo3 (Escherichia coli, UniProt P0ABI8); settings: steady state kinetic experiments; read-out: kiapp; cited from earlier work
T3 construct: made in house; host or cells: E. coli strain GO195 with plasmid pIRHisA
T3 sequence (P0ABJ1 25-315): as the sequence (P0ABJ1 25-315) above
T3 sequence (P0ABI8 whole entry): as the sequence (P0ABI8 whole entry) above
T3 sequence (P0ABJ3 whole entry, further chain): as the sequence (P0ABJ3 whole entry, further chain) above
T3 sequence (P0ABJ6 whole entry, further chain): as the sequence (P0ABJ6 whole entry, further chain) above

[5] = inhibitor 250 µM, 200 μM ubiquinone-1, 5 mM DTT, 30 nM enzyme, RT, mean of three ± SD, 100 % = EtOH
[6] = HNQ 250 μM, 200 μM ubiquinone-1
[7] = aqueous with cosolvent or surfactant or cyclodextrin, thermodynamic from solid
[8] = inhibitor 250 µM, 200 μM ubiquinone-1, 5 mM DTT, 30 nM enzyme, RT, mean of three ± SD, 100 % = EtOH, listed as HNQ-4

Compound	Residual activity for oxygen reduction, Cytochrome bo3 [2, 5] [%]	inhibitory effect on cyt bd-I oxidase [1, 6] [%]	remaining activity at 250 µM [1, 5] [%]	inhibition at 250 µM [2, 6] [%]	remaining activity at 250 µM [2, 5] [%]	solubility at 1 day [3, 7]	inhibitory effect on cyt bd-I activity (in words) ([1]; HNQ 250 μM)	inhibitory effect on cyt bo3 activity (in words) ([2]; HNQ 250 μM)	further results
2‐Hydroxy‐3‐[(3,5‐dihydroxybenzyl)methyl]‐1,4‐naphthoquinone [HNQ‐10]	69.1 ± 8	–	–	–	–	–	–	–	Residual activity for oxygen reduction, Cytochrome bd-I [1, 5]: 107 ± 8%; inhibition (reduction) of cyt bo3 activity [2, 6]: 31%; Solubility [3]: 840±151 μg/mL and 2.1±0.4 mM
2‐Hydroxy‐3‐[(4‐phenoxybenzyl)methyl]‐1,4‐naphthoquinone [HNQ‐12]	13.1 ± 7	56	–	–	–	–	–	–	Residual activity for oxygen reduction, Cytochrome bd-I [1, 5]: 43.8 ± 7%; inhibition (reduction) of cyt bo3 activity [2, 6]: > 50%; Solubility [3]: 1640±94 μg/mL and 4.6±0.3 mM
2‐Hydroxy‐3‐[(ferreocenyl)methyl]‐1,4‐naphthoquinone [HNQ‐9]	–	–	–	–	–	–	–	–	Residual activity for oxygen reduction, Cytochrome bd-I [1]: 110 ± 17%; inhibitory effect on cyt bd-I oxidase [1]: < 30%; Residual activity for oxygen reduction, Cytochrome bo3 [2]: 84.4 ± 17%; inhibition (reduction) of cyt bo3 activity [2]: < 30%; Solubility [3]: >8.3 mM
CCCCCCCCCCCCCC1=C(O)C(=O)c2ccccc2C1=O [HNQ‐1, 2‐Hydroxy‐3‐tridecyl‐1,4‐naphthoquinone]	–	30	70.2 ± 12	> 50	2.64 ± 12	335 µg/mL and 1020 µM	–	–	–
O=C1C(O)=C(Cc2ccccc2)C(=O)c2ccccc21 [HNQ‐2, 2‐Hydroxy‐3‐methylene‐(benzyl)‐1,4‐naphthoquinone]	–	–	107 ± 6	> 50	21.8 ± 6	–	not influencing	strong inhibitory effect	Solubility ([3]; aqueous with cosolvent or surfactant or cyclodextrin, thermodynamic from solid, read-out: Solubility): 334 µg/mL and 1260 µM
O=C1C(O)=C(Cc2ccncc2)C(=O)c2ccccc21 [HNQ‐3, 2‐Hydroxy‐3‐methylen‐(4‐N‐pyridyl)‐1,4‐naphthoquinone]	–	< 30	110 ± 12	< 30	99.5 ± 12	627 µg/mL and 2360 µM	activity remains unaffected	activity remains unaffected	–
CN(C)c1ccc(CC2=C(O)C(=O)c3ccccc3C2=O)cc1 [HNQ‐4, 2‐Hydroxy‐3‐methylen‐(4‐N,N ‐dimethylanilid)‐1,4 naphthoquinone]	15	< 30	–	< 30	–	267 µg/mL and 870 µM	–	–	Residual activity for oxygen reduction, Cytochrome bd-I [1, 5]: 15%; Residual activity for oxygen reduction, Cytochrome bd-I [1, 8]: 84.2 ± 11%; Residual activity for oxygen reduction, Cytochrome bo3 [2, 8]: 84.8 ± 11%
O=C1C(O)=C(Cc2ccc3[nH]ncc3c2)C(=O)c2ccccc21 [HNQ‐5, 2‐Hydroxy‐3‐[(indazol‐5‐yl)methyl]‐1,4‐naphthoquinone]	–	–	117 ± 7	40	59.9 ± 7	1670 µg/mL and 5500 µM	–	–	–
O=C1C(O)=C(Cc2ccc3c(c2)OCO3)C(=O)c2ccccc21 [HNQ‐6, 2‐Hydroxy‐3‐[(1,2‐methylenedioxybenz‐5 yl)methyl]‐1,4‐naphthoquinone]	< 30	–	109 ± 13	> 50	27.3 ± 13	400 µg/mL and 780 µM	–	–	–
COc1cc(CC2=C(O)C(=O)c3ccccc3C2=O)ccc1O [HNQ‐7, 2‐Hydroxy‐3‐[(4‐hydroxy‐3‐methoxyphenyl)methyl]‐1,4‐naphthoquinone]	< 50	–	106 ± 7	> 50	49.5 ± 7	> 2680 µg/mL and > 8300 µM	–	–	–
O=C1C(O)=C(Cc2c[nH]c3ncccc23)C(=O)c2ccccc21 [HNQ‐8, 2‐Hydroxy‐3‐[(1H‐pyrrolo(2,3‐b)pyridine‐3‐yl)methyl]‐1,4‐naphthoquinone]	–	< 30	106 ± 5	–	101 ± 5	> 3140 µg/mL and > 10300 µM	could not show an influence	could not show an influence	–
O=C1C(O)=C(C(c2nc3ccccc3s2)N2CCC[C@H]2C(=O)O)C(=O)c2ccccc21 (stereo partly drawn) [HNQ‐11, 2‐Hydroxy‐3‐[(2‐thiazol(2‐3)benzyl)methyl)pyrrolidine‐2‐carboxylic acid‐1,4‐naphthoquinone]	–	< 30	111 ± 13	< 30	115 ± 13	800 µg/mL and 1840 µM	could not show an influence	could not show an influence	–
CCCCCCCc1cc(O)c2ccccc2[n+]1[O-] [HQNO, 2‐heptyl‐4‐quinolinol 1‐oxide, reference compound]	–	–	9.05 ± 1	–	4.42 ± 6	–	–	–	Ki [4]: 700 nM
